Measured values taken from patent US20220251079A1, “BENZO[B][1,8]NAPHTHYRIDINE ACETIC ACID DERIVATIVES AND METHODS OF USE” (STINGTHERA, INC., priority 2019, published 2022).

How the values were obtained:
[1] = target: T1, hSTING-R232 (Homo sapiens, UniProt Q86WV6, H232R); experiment: STING Differential Scanning Fluorimetry (DSF) assay, human; format: binding; conditions: human STING R232-WT, 5 μM protein
T1 construct: recombinant mouse or human STING protein (aa140-379); 6xHis-SUMO elsewhere) (cleaved yes); made in house
T1 sequence (Q86WV6 140-379 H232R): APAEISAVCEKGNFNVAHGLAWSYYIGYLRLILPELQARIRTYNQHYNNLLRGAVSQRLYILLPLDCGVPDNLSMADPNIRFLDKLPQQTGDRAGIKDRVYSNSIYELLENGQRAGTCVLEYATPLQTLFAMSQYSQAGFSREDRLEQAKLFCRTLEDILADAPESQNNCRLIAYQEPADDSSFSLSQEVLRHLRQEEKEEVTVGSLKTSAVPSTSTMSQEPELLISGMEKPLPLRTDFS
Description: A STING DSF assay was performed to determine protein thermostability shift in response to small molecule ligand binding. A STING thermostability shift assay based on differential scanning fluorimetry was used to measure (1) the net shift in melting temperature (ΔTm)between the apo and ligand-bound states of the STING protein and (2) the concentration of the thermal denaturation transition (FC50) as a surrogate measure of binding affinity (Kd). Briefly, recombinant mouse or human STING protein (aa140-379) comprising the C-terminal binding domain (R232-WT) were purified by affinity chromatography and further processed to remove the purification tag, followed by gel filtration to achieve purity >95%. Protein in assay buffer was transferred to a 384 well plate and incubated with the hydrophobic fluorescent dye SYBR Orange. A temperature ramp was applied to the plate and the resulting dye fluorescence was plotted as a function of temperature. The first derivative of this function (dF/dT) was then used to extrapolate the melting temperature of the protein at various concentrations of compound and determine the thermal denaturation profile of a protein/compound complex.
2. 5 μM purified Target STING Protein
4. Buffer: 100 mM NaCl, 30 mM HEPES, pH 7.5
5. Thermal Ramp: 0.5° C./min
7. 11 point, 2 fold dilution, duplicate, 300 μM high concentrations

[2] = target: T2, STING protein (Homo sapiens, UniProt Q86WV6, H232R); experiment: Cell based reporter assay of IRF activation (THP1-dual-KI R232, IRF luciferase); conditions: THP-1; read-out: THP1-dual-KI R232_IRF(Luciferase)_Activity Maximum measured (%)
T2 construct: host or cells: THP-1 dual reporter cells, TMEM173 modified from HAQ to R232 (THP1-dual-KI R232)
T2 sequence (Q86WV6 whole entry H232R): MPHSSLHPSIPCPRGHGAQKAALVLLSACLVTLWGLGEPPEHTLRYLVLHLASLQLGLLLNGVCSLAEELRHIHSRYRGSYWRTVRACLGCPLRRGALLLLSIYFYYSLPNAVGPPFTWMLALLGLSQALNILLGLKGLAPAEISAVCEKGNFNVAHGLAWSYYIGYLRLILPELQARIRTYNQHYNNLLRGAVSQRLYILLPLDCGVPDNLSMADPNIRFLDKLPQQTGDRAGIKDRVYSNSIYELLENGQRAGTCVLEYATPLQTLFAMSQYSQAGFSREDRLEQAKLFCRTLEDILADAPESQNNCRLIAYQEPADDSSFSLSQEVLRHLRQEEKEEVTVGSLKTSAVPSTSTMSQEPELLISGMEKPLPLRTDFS
Excerpt: Cell reporter assays were developed to measure the ability of compounds of the application to activate the STING protein and activate both IRF/IFN and the NFkB signaling pathways in the myeloid derived cell line THP-1, which is commercially available from several suppliers. Briefly, THP-1 monocytes were transfected and selected for stable integration of 2 reporter constructs. Clones incorporating stably integrated vectors were further selected by antibiotic resistance to blastocidin and zeocin. The reporter constructs included: (1) firefly luciferase reporter gene under the control of an ISG54 promoter fused to five interferon (IFN)-stimulated response elements to measure IRF transcription factor binding activity and (2) secreted embryonic alkaline phosphatase reporter gene under transcription control of an IFN-beta minimal promoter fused to 5 copies of the NFkB consensus transcriptional response element and 3 copies of the c-Rel binding site.
The resulting THP-1 cell line was further modified to incorporate 3 amino acid point mutations (H71R A230G Q293R). This modification of the native TMEM173 gene in THP-1 cells (HAQ) was designed to produce a cell reporter that expressed the most common allelic variant in the human population (THP-1 R232, available from InvivoGen). Alternatively, the TMEM173 gene was knocked out to provide a congenic control to counter-screen for compound activation that was independent of the STING protein (THP-1 STING KO).
Once cell lines were established, reporter assay protocols were developed and optimized to screen small molecule compounds for agonist activity. Assay optimization for efficacy and Z′ value included titration of the following parameters:
1. No pre-activation with PMA
2. […]cells/well in 96 well plate format
7. Cell Titer Glo reagent (Promega) following supermatant removal
9. 8 point, 2 fold, duplicate starting at 150 μM PP28T

[3] = target: T3, human STING protein (140-379) (Homo sapiens, UniProt Q86WV6, H232R); experiment: Radiometric filtration binding competition assay (WT_FBA_HIS-SUMO-hSWAT); conditions: read-out: WT-hSWAT IC50
T3 construct: 6XHIS-SUMO-hSTING (140-379); made in house; host or cells: BL-21(DE3) E. coli, pET vector
T3 sequence (Q86WV6 140-379 H232R): as the sequence (Q86WV6 140-379 H232R) above
Description: A radiometric filtration binding competition assay was performed to quantify the binding affinity of compounds of the present application for the human or mouse STING protein, or associated HAQ human isoform. The competition format filtration binding assay detects the ability of small molecule compounds from binding to and inhibiting the subsequent binding of a tritiated [H3] […] The resulting dose response was fit by non-linear regression to determine an IC50 value, from which a Ki value for each compound was extrapolated.
Briefly, the recombinant C-terminal ligand binding domain of the human STING protein (140-379) or mouse STING protein (139-328) [0.5 μM] was incubated in the presence of a compound of the present application (8 point, 2 fold dilution starting at 300 μM) for 30 min or under control conditions. […] The resulting complexes were then filtered, dried, and scintillation fluid was added and the remaining radio signal was measured to determine the degree of compound ligand inhibition. This assay format was optimized for both the WT and HAQ isoforms of the human protein and the mouse orthologue protein.
Parameters optimized: • a. Form of protein: 6×HIS-SUMO tag or untagged • b. Concentration of target protein: Minimum concentration that achieved >80 max signal • c. Assay DMSO concentration: 10%-0.1% • d. Assay Buffer: Base (Tris or phosphate), Salt concentration, +/−Tween (0.1-2%) • e. […] Probe Concentration: Minimum concentration that achieved max assay window • g. Assay Format: Scintillation Proximity Bead or Filtration Binding Plate • h. Assay Plate: 384 vs 96 well format • i. Assay incubation times for successive incubation steps
WT-hSWAT: WT_FBA_HIS-SUMO-hSWAT IC50 (μM) (“WT”=Wild-type); and WT-mSWAT: MOUSE_FBA_HIS-SUMO-mSWAT C50 (μM) which is the mouse isoform of STING protein.

WT_DSF_hSWAT Tm Shift (° C.) [1]	Emax [2]	IC50 [3]	SMILES
D (“D” > 7° C.)	> 50%	20 to 100 µM	CO[C@H]1C[C@@H](N(C)c2ccc3c(=O)c4ccc(Cl)c(SC)c4n(CC(=O)O)c3n2)C1 (single isomer, unassigned) [Compound 44, 2-(8-chloro-2-(((1s,3s)-3-methoxycyclobutyl) (methyl)amino)-9-(methylthio)-5-oxobenzo[b][1,8]naphthyridin-10(5H)-yl)acetic acid]
D (“D” > 7° C.)	> 50%	< 20 µM	CO[C@H]1C[C@H](N(C)c2ccc3c(=O)c4ccc(Cl)c(SC)c4n(CC(=O)O)c3n2)C1 (single isomer, unassigned) [Compound 70, 2-(8-chloro-2-(((1r,3r)-3-methoxycyclobutyl)(methyl)amino)-9-(methylthio)-5-oxobenzo[b][1,8]naphthyridin-10(5H)-yl)acetic acid]
D (“D” > 7° C.)	> 50%	100 to 300 µM	COc1c(Cl)ccc2c(=O)c3ccc(C(C)C)nc3n(CC(=O)O)c12 [Compound 1]
D (“D” > 7° C.)	> 50%	20 to 100 µM	Cc1ccc2c(=O)c3ccc(Cl)c(N(C)C)c3n(CC(=O)O)c2n1 [Compound 4]
D (“D” > 7° C.)	> 50%	< 20 µM	CN(C)c1c(Cl)ccc2c(=O)c3ccc(C(C)(C)C)nc3n(CC(=O)O)c12 [Compound 5, [2-tert-butyl-8-chloro-9-(dimethylamino)-5-oxobenzo[b]1,8-naphthyridin-10-yl]acetic acid]
D (“D” > 7° C.)	> 50%	< 20 µM	CN(C)c1c(Cl)ccc2c(=O)c3ccc(Nc4ccccc4)nc3n(CC(=O)O)c12 [Compound 6]
D (“D” > 7° C.)	> 50%	< 20 µM	CC(C)c1ccc2c(=O)c3ccc(Cl)c(N(C)C)c3n(CC(=O)O)c2n1 [Compound 7]
D (“D” > 7° C.)	> 50%	< 20 µM	CCc1ccc2c(=O)c3ccc(Cl)c(N(C)C)c3n(CC(=O)O)c2n1 [Compound 8]
C (“C” = 2-7° C.)	> 50%	100 to 300 µM	Cc1ccc2c(=O)c3c(O)cc(Cl)c(N(C)C)c3n(CC(=O)O)c2n1 [Compound 9]
C (“C” = 2-7° C.)	> 50%	> 300 µM	Cc1ccc2c(=O)c3ccc(Cl)c(N(C)C)c3n(CC(=O)NS(C)(=O)=O)c2n1 [Compound 10]
B (“B” = 0-2° C.)	< 5%	> 300 µM	Cc1ccc2c(=O)c3ccc(Cl)c(N(C)C)c3n(CC(=O)NC#N)c2n1 [Compound 11]
D (“D” > 7° C.)	> 50%	< 20 µM	CSc1c(Cl)ccc2c(=O)c3ccc(C(C)(C)C)nc3n(CC(=O)O)c12 [Compound 12]
B (“B” = 0-2° C.)	> 50%	> 300 µM	CSc1ccc2c(=O)c3ccc(C(C)(C)C)nc3n(CC(=O)O)c2c1SC [Compound 13]
B (“B” = 0-2° C.)	> 50%	> 300 µM	CC(C)(C)c1ccc2c(=O)c3ccc(Cl)c(F)c3n(CC(=O)O)c2n1 [Compound 14]
C (“C” = 2-7° C.)	> 50%	20 to 100 µM	CCc1nc2c(cc1Cl)c(=O)c1ccc(Cl)c(N(C)C)c1n2CC(=O)O [Compound 17, 2-(3,8-dichloro-9-(dimethylamino)-2-ethyl-5-oxobenzo[b][1,8]naphthyridin-10(5H)-yl)acetic acid]
C (“C” = 2-7° C.)	> 50%	< 20 µM	CCOc1nc2c(cc1Cl)c(=O)c1ccc(Cl)c(N(C)C)c1n2CC(=O)O [Compound 18, 2-(3,8-dichloro-9-(dimethylamino)-2-ethoxy-5-oxobenzo[b][1,8]naphthyridin-10(5H)-yl) acetic acid]
D (“D” > 7° C.)	> 50%	20 to 100 µM	CN(C)c1ccc2c(=O)c3ccc(Cl)c(N(C)C)c3n(CC(=O)O)c2n1 [Compound 19, sodium 2-(8-chloro-2,9-bis(dimethylamino)-5-oxobenzo[b][1,8]naphthyridin-10(5H)-yl)acetate]
C (“C” = 2-7° C.)	> 50%	100 to 300 µM	CN(C)c1c(Cl)ccc2c(=O)c3ccc(C(C)(C)C(N)=O)nc3n(CC(=O)O)c12 [Compound 20, 2-(2-(1-amino-2-methyl-1-oxopropan-2-yl)-8-chloro-9-(dimethylamino)-5-oxobenzo[b][1,8]naphthyridin-10(5H)-yl)acetic acid]
C (“C” = 2-7° C.)	> 50%	20 to 100 µM	COc1ccc2c(=O)c3ccc(Cl)c(N(C)C)c3n(CC(=O)O)c2n1 [Compound 21, 2-(8-chloro-9-(dimethylamino)-2-methoxy-5-oxobenzo[b][1,8]naphthyridin-10(5H)-yl) acetic acid]
D (“D” > 7° C.)	> 50%	20 to 100 µM	CSc1c(Cl)ccc2c(=O)c3ccc(N(C)C)nc3n(CC(=O)O)c12 [Compound 22, sodium 2-(8-chloro-2-(dimethylamino)-9-(methylthio)-5-oxobenzo[b][1,8]naphthyridin-10(5H)-yl)acetate]
C (“C” = 2-7° C.)	> 50%	100 to 300 µM	CCOc1c(Cl)ccc2c(=O)c3ccc(N(C)C)nc3n(CC(=O)O)c12 [Compound 23, sodium 2-(8-chloro-2-(dimethylamino)-9-ethoxy-5-oxobenzo[b][1,8]naphthyridin-10(5H)-yl)acetate]
C (“C” = 2-7° C.)	–	100 to 300 µM	CO[C@H]1C[C@H](N(C)c2ccc3c(=O)c4ccc(C)c(N(C)C)c4n(CC(=O)O)c3n2)C1 [Compound 66, 2-(9-(dimethylamino)-2-(((1r,3r)-3-methoxycyclobutyl)(methyl)amino)-8-methyl-5-oxobenzo[b][1,8]naphthyridin-10(5H)-yl)acetic acid]
D (“D” > 7° C.)	–	< 20 µM	CSc1c(Cl)ccc2c(=O)c3cc(Cl)c(N(C)CC4CCOCC4)nc3n(CC(=O)O)c12 [Compound 76, sodium 2-(3,8-dichloro-2-(methyl((tetrahydro-2H-pyran-4-yl)methyl)amino)-9-(methylthio)-5-oxobenzo[b][1,8]naphthyridin-10(5H)-yl)acetate]
